Experimental data as given in US12180248B2, “Compositions and methods for treating CNS disorders” (Sage Therapeutics, Inc., priority 2014, dated 2024).

Molecular target: rat brain cortical membranes ([35S]-TBPS binding; GABAA receptor)
Assay: Steroid inhibition of [35S]-TBPS binding (radioligand displacement)
Conditions: 3 nM [35S]-TBPS, in the presence of 5 μM GABA, 90 min at room temp
Description: TBPS binding assays using rat brain cortical membranes in the presence of […] GABA has been described (Gee et al, J. Pharmacol. Exp. Ther. 1987, 241, 346-353; Hawkinson et al, Mol. Pharmacol. 1994, 46, 977-985; Lewin, A. H et al., Mol. Pharmacol. 1989, 35, 189-194).
Briefly, cortices are rapidly removed following decapitation of carbon dioxide-anesthetized Sprague-Dawley rats (200-250 g). The cortices are homogenized in 10 volumes of ice-cold 0.32 M sucrose using a glass/teflon homogenizer and centrifuged at 1500×g for 10 min at 4° C. The resultant supernatants are centrifuged at 10,000×g for 20 min at 4° C.; to obtain the P2 pellets. The P2 pellets are resuspended in 200 mM NaCl/50 mM Na—K phosphate pH 7.4 buffer and centrifuged at 10,000×g for 10 min at 4° C. This washing procedure is repeated twice and the pellets are resuspended in 10 volumes of buffer. Aliquots (100 μL) of the membrane suspensions are incubated with 3 nM [^35S]-TBPS and 5 μL aliquots of test drug dissolved in dimethyl sulfoxide (DMSO) (final 0.5%) in the presence of 5 μM GABA. The incubation is brought to a final volume of 1.0 mL with buffer. Nonspecific binding is determined in the presence of 2 μM unlabeled TBPS and ranged from 15 to 25%. Following a 90 min incubation at room temp, the assays are terminated by filtration through glass fiber filters (Schleicher and Schuell No. 32) using a cell harvester (Brandel) and rinsed three times with ice-cold buffer. Filter bound radioactivity is measured by liquid scintillation spectrometry. Non-linear curve fitting of the overall data for each drug averaged for each concentration is done using Prism (GraphPad). […] The concentration of test compound producing 50% inhibition (IC50) of specific binding and the maximal extent of inhibition (Imax) are determined for the individual experiments with the same model used for the overall data and then the means±SEM.s of the individual experiments are calculated.
Various compounds are or can be screened to determine their potential as modulators of [^35S]-TBPS binding in vitro. These assays are or can be performed in accordance with the above discussed procedures.

SMILES	IC50
C[C@H](C(=O)[C@H]1CC[C@H]2[C@@H]3CC[C@@H]4C[C@](C)(O)CC[C@@H]4[C@H]3CC[C@]12C)n1nc2ccccc2n1 [Compound 7, (R)-2-(2H-benzo[d][1,2,3]triazol-2-yl)-1-((3R,5R,8R,9R,10S,13S,14S,17S)-3-hydroxy-3,13-dimethylhexadecahydro-1H-cyclopenta[a]phenanthren-17-yl)propan-1-one]	250 to 500 nM
C[C@@H](C(=O)[C@H]1CC[C@H]2[C@@H]3CC[C@@H]4C[C@](C)(O)CC[C@@H]4[C@H]3CC[C@]12C)n1nc2ccccc2n1 [Compound 6, (S)-2-(2H-benzo[d][1,2,3]triazol-2-yl)-1-((3R,5R,8R,9R,10S,13S,14S,17S)-3-hydroxy-3,1:3-dimethylhexadecahydro-1H-cyclopenta[a]phenanthren-17-yl)propan-1-one]	< 50 nM
C[C@H](C(=O)[C@H]1CC[C@H]2[C@@H]3CC[C@@H]4C[C@](C)(O)CC[C@@H]4[C@H]3CC[C@]12C)n1cc(C#N)cn1 [Compound 4, 1-((R)-1-((3R,5R,8R,9R,10S,13S,14S,17S)-3-hydroxy-3,13-dimethylhexadecahydro-1H-cyclopenta[a]phenanthren-17-yl)-1-oxopropan-2-yl)-1H-pyrazole-4-carbonitrile]	50 to 100 nM
C[C@@H](C(=O)[C@H]1CC[C@H]2[C@@H]3CC[C@@H]4C[C@](C)(O)CC[C@@H]4[C@H]3CC[C@]12C)n1nccn1 [Compound 2, (S)-1-((3R,5R,8R,9R,10S,13S,14S,17S)-3-hydroxy-3,13-dimethylhexadecahydro-: 1H-cyclopenta[a]phenanthren-17-yl)-2-(2H-1,2,3-triazol-2-yl)propan-1-one]	50 to 100 nM
C[C@@H](C(=O)[C@H]1CC[C@H]2[C@@H]3CC[C@@H]4C[C@](C)(O)CC[C@@H]4[C@H]3CC[C@]12C)n1cc(C#N)cn1 [Compound 3, 1-((S)-1-((3R,5R,8R,9R,10S,13S,14S,17S)-3-hydroxy-3,13-dimethylhexadecahydro-1H-cyclopenta[a]phenanthren-17-yl)-1-oxopropan-2-yl)-1H-pyrazole-4-carbonitrile]	< 50 nM
CC(C(=O)[C@H]1CC[C@H]2[C@@H]3CC[C@@H]4C[C@](C)(O)CC[C@@H]4[C@H]3CC[C@]12C)N1CCOCC1 (stereo partly drawn) [Compound 5, 1-((3R,5R,8R,9R,10S,13S,14S,17S)-3-hydroxy-3,13-dimethylhexadecahydro-1H-cyclopenta[a]phenanthren-17-yl)-2-morpholinopropan-1-one]	250 to 500 nM
C[C@H](C(=O)[C@H]1CC[C@H]2[C@@H]3CC[C@@H]4C[C@](C)(O)CC[C@@H]4[C@H]3CC[C@]12C)n1nccn1 [Compound 1, (R)-1-((3R,5R,8R,9R,10S,13S,14S,17S)-3-hydroxy-3,13-dimethylhexadecahydro-1H-cyclopenta[a]phenanthren-17-yl)-2-(2H-1,2,3-triazol-2-yl)propan-1-one]	250 to 500 nM
